One molecule from patent publication US20150072935A1, “COMPOSITION AND EXTERNAL APPLICATION FOR ACCELERATION OF MUSCLE DIFFERENTIATION AND IMPROVING OF MUSCLE MASS” (NEOPHARM CO., LTD., priority 2013, published 2015) can be followed below.

Test [1] relates to C2C12 myoblast cells. The test can be described thus: Muscle differentiation promotion in C2C12 myoblast cells, western blotting of muscle proteins, concentration dependence. It is filed as cell-based. The following applies: differentiation medium with 2% horse serum, 0, 10 and 100 uM, after 3 days of differentiation induction, western blotting (FIG. 1). Here is the method: Undifferentiated C2C12 myoblast cells were cultured in a dish having a diameter of 100 mm using a Dulbecco's modified Eagle's medium (DMEM) with 10% fetal bovine serum (FBS). When the cells covered about 70% of an area, the cells were seeded in a 6-well dish at 8×10^5/well and cultured until the cells covered 90% of an area. Thereafter, muscle differentiation was induced using a differentiation medium with 2% horse serum. In this case, the cells were treated with a myotide (Chemical Formula 2, Incospharm Corp.) composition (0.1% DMSO in phosphate buffer saline) of the present invention at contents of 0, 10, and 100 uM. The differentiation medium was changed into a new differentiation medium containing […] every 24 hours, and after 3 days of differentiation induction, muscles cell lysis was performed using a cell lysis buffer, followed by western blotting. In order to confirm a degree of muscle differentiation, protein expression amounts of myosin heavy chain I, caveolin-3, and myogenin, which are representative protein of muscles, were observed. […] Therefore, the composition according to the present invention promoted muscle differentiation.
On the technique in general: A western blot detects proteins with antibodies after separation by electrophoresis.

For test [2], the system named is C2C12 myoblast cells. The test can be described thus: Muscle differentiation promotion in C2C12 myoblast cells depending on differentiation time, western blotting. It is filed as cell-based. The following applies: differentiation medium with 2% horse serum, 50 uM, after 1, 2 and 3 days of differentiation induction, western blotting (FIG. 2). Here is the method:
Undifferentiated C2C12 myoblast cells were cultured in a dish having a diameter of 100 mm using a DMEM with 10% fetal bovine serum (FBS). When the cells covered about 70% of an area, the cells were seeded in a 6-well dish at 8×10^5/well and cultured until the cells covered 90% of an area. Thereafter, muscle differentiation was induced using a differentiation medium with 2% horse serum. In this case, the cells were treated with a myotide (Chemical Formula 2, Incospharm Corp.) composition (0.1% DMSO in phosphate buffer saline) of the present invention at a content of 50 uM. After 1, 2, and 3 days of differentiation induction, cell lysis was performed using a lysis buffer, and a degree of muscle differentiation was confirmed by western blotting.

Numbered stars: 1 amine (or outer) side, 2 acyl side, 3 side chain; on linkers, the order of the positions; unused ones are H or OH. Square brackets hold non-standard residues; d marks the D form. Peptide text beside a SMILES is read from it. * marks the point of attachment. ξ: configuration not given here. Biotin = O=C1N[C@H]2[C@H](CS[C@H]2CCCCC(=O)*)N1; X1 = O=C(C(CC1=NCNC1)N[*:1])[*:2]; ξW = NC(Cc1c[nH]c2ccccc12)C(=O)O; ξF = NC(Cc1ccccc1)C(=O)O; ξK = NCCCCC(N)C(=O)O; ξA = CC(N)C(=O)O

Regarding `CC(NC(=O)C(Cc1c[nH]c2ccccc12)NC(=O)C(CC1=NCNC1)NC(=O)CCCC[C@@H]1SC[C@@H]2NC(=O)N[C@@H]21)C(=O)NC(Cc1c[nH]c2ccccc12)C(=O)NC(Cc1ccccc1)C(=O)NC(CCCCN)C(N)=O` (some centres unmarked) [myotide] (Biotin-[X1][ξW][ξA][ξW][ξF][ξK]-NH2), the “expression of muscle proteins (myosin heavy chain I, caveolin-3, myogenin)” value in the test on C2C12 myoblast cells [1] was “concentration-dependently increased”. In the test on C2C12 myoblast cells [2], the “expression of muscle proteins (myosin heavy chain I, caveolin-3, and myogenin)” value is given as “increased”.
